Measurements: US10787425B2, “Thiazolidinedione derivative and use thereof” (INDUSTRY-ACADEMIC COOPERATION FOUNDATION CHOSUN UNIVERSITY, priority 2016, dated 2020)

Columns and labels:
A549 cells = assay: Measurement of PGE2 concentration in A549 cell medium (ELISA); assay type: cell-based, human; conditions: for Increment %: PGE2 concentration versus PBS control, 5 μM, 12 hours; for PGE2 concentration: inhibitor 5 μM, medium collected after 12 hours, ELISA
Procedure: A549 cells were subcultured in RPMI 1640 medium (containing+8% fetal bovine serum (FBS) and antibiotic-antimycotic (AA)) for one week, and then, inoculated in a 6-well plate at 2.5×10^5 cells/mL (5×10^5 cells/well) and cultured for 24 hours in a 5% CO2 incubator at a temperature of 37° C. A549 cells are adenocarcinomic human alveolar basal epithelial cells which are derived from lung tissues. When cells were grown to about 80% confluence, a 15-PGDH inhibitor in 1×PBS buffer was injected at a concentration of 5 μM. To compare the results, the same amount of 1×PBS buffer was injected into a negative control, and, the treated cells were cultured in 5% CO2 incubator. After 12 hours, the medium was collected and the collected medium was assayed to measure PGE2 concentration by using an ELISA Kit (Abcam) according to the manufacturer's instructions. The concentration may be expressed as an exact value by plotting the calibration curve by using the absorbance value after diluting the standard in the medium by concentration.

15-PGDH = 15-PGDH (Homo sapiens (Human), UniProt P15428); assay: 15-PGDH inhibitory activity (NADH at 340 nm); assay type: biochemical; conditions: concentration inhibiting 50% of 15-PGDH activity; purified 15-PGDH, 21 μM PGE2, 0.25 mM NAD+
Chain of 15-PGDH (P15428 whole entry): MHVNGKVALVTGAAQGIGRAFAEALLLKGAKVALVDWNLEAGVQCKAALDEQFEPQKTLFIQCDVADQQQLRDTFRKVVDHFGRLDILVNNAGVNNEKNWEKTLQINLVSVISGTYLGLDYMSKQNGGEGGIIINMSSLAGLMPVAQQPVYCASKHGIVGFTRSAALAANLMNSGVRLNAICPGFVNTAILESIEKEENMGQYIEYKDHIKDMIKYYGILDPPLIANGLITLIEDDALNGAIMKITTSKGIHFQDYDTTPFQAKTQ
Procedure: The 15-PGDH cDNA plasmid containing the BamHI of the pGEX-2T expression vector and EcoRI restriction enzyme sites was transfected into E. coli BL-21 LysS by using conventional methods used in the art. Then, the transfected cells were cultured in an LB medium (500 ml) containing 50 μg/ml of ampicillin at a temperature of 37° C. and at a rate of 220 rpm until the OD600 reached 0.6. Then, isopropyl beta-D-thiogalactoxide (1 mM) was added and the cells were further cultured at the temperature of 25° C. for 12 hours. The cells were then centrifuged at the gravity of 4,000 g for 30 minutes at a temperature of 4° C. to collect a cell pellet. The cell pellet was dissolved in 20 ml of cell lysis buffer (containing 1×PBS buffer (pH 7.4): 1 mM EDTA and 0.1 mM DTT) and sonicated at a temperature of 4° C. for 14×10 s. The digested cells were centrifuged at the gravity of 4,000 g for 20 minutes at a temperature of 4° C. The supernatant was then slowly loaded onto a glutathione-sepharose 4B column equilibrated at a temperature of 4° C. with cell lysis buffer [containing 1×PBS buffer (pH 7.4), 1 mM EDTA, and 0.1 mM DTT]. Washing was performed thereon by using a dissolution buffer until the OD280 reached 0.005 or less. Then, 15-PGDH was eluted from the glutathione-sepharose 4B column at room temperature for 5 minutes by using an elution buffer [containing 50 mM Tris-HCl (pH 8.0), 10 mM reduced glutathione, 1 mM EDTA, and 0.1 mM DTT). The concentration of the purified enzyme was measured, and the purification level thereof was confirmed by SDS-PAGE.
That is, the cells were treated with a solution including 50 mM Tris-HCl (pH 7.5), 0.1 mM DTT, 0.25 mM (NAD+), 10 μg of purified 15-PGDH enzyme, 21 μM PGE2. and various concentrations (0.0001 μM to 64 μM) of the derivative compound according to the present disclosure. In this case, the total volume of the solution was 2 ml. Then, the absorbance of the reaction mixture was recorded at the wavelength of 340 nm. To measure the activity of the derivative compounds according to the present disclosure, which is an inhibitor of 15-PGDH, the average value of NADH absorbance at 340 nm at various concentrations was obtained from a standard curve.

CCOc1cc(/C=C2\SC(=O)NC2=O)ccc1OC(=O)CCCCC1CCCCC1 [Compound 55, (Z)-4-((2,4-dioxothiazolidin-5-ylidene)methyl)-2-ethoxyphenyl 5-cyclohexylpentanoate]
Increment % (A549 cells): 7.8%
PGE2 concentration (A549 cells): 295.349 pg/mL
IC50 (15-PGDH): 34.4 nM

O=C(CCC1CCCC1)Oc1ccc(/C=C2\SC(=O)NC2=O)cc1 [Compound 65, (Z)-4-((2,4-dioxothiazolidin-5-ylidene)methyl)phenyl 3-cyclopentylpropanoate]
Increment % (A549 cells): 78.97%
PGE2 concentration (A549 cells): 284.8007 pg/mL
IC50 (15-PGDH): 23.2 nM

O=C(CCCCC1CCCCC1)Oc1ccc(/C=C2\SC(=O)NC2=O)cc1Br [Compound 25, (Z)-2-bromo-4-((2,4-dioxothiazolidin-5-ylidene)methyl)phenyl 5-cyclohexylpentanoate]
Increment % (A549 cells): 5.34%
PGE2 concentration (A549 cells): 266.5484 pg/mL
IC50 (15-PGDH): 26.3 nM

O=C(CC1CCCCC1)Oc1ccc(/C=C2\SC(=O)NC2=O)cc1Br [Compound 22, (Z)-2-bromo-4-((2,4-dioxothiazolidin-5-ylidene)methyl)phenyl 2-cyclohexylacetate]
Increment % (A549 cells): 89.77%
PGE2 concentration (A549 cells): 480.187 pg/mL
IC50 (15-PGDH): 20.6 nM

O=C(CCCCC1CCCCC1)Oc1ccc(/C=C2\SC(=O)NC2=O)cc1 [Compound 70, (Z)-4-((2,4-dioxothiazolidin-5-ylidene)methyl)phenyl 5-cyclohexylpentanoate]
Increment % (A549 cells): 69.97%
PGE2 concentration (A549 cells): 219.5565 pg/mL
IC50 (15-PGDH): 50.4 nM

O=C(CCCC1CCCCC1)Oc1ccc(/C=C2\SC(=O)NC2=O)c(Cl)c1 [Compound 99, (Z)-3-chloro-4-((2,4-dioxothiazolidin-5-ylidene)methyl)phenyl 4-cyclohexylbutanoate]
Increment % (A549 cells): 66.7717%
PGE2 concentration (A549 cells): 186.2131 pg/mL

COc1cc(/C=C2\SC(=O)NC2=O)ccc1OC(=O)C1CCC1 [Compound 32, (Z)-4-((2,4-dioxothiazolidin-5-ylidene)methyl)-2-methoxyphenyl cyclobutanecarboxylate]
Increment % (A549 cells): 60.62%
PGE2 concentration (A549 cells): 316.7495 pg/mL
IC50 (15-PGDH): 1120 nM

O=C1NC(=O)/C(=C/c2ccc(OC(=O)C3CCC3)c(Br)c2)S1 [Compound 17, (Z)-2-bromo-4-((2,4-dioxothiazolidin-5-ylidene)methyl)phenyl cyclobutanecarboxylate]
Increment % (A549 cells): 56.34%
PGE2 concentration (A549 cells): 395.597 pg/mL
IC50 (15-PGDH): 106 nM

CCOc1cc(/C=C2\SC(=O)NC2=O)ccc1OC(=O)CC1CCCC1 [Compound 49, (Z)-4-((2,4-dioxothiazolidin-5-ylidene)methyl)-2-ethoxyphenyl 2-cyclopentylacetate]
Increment % (A549 cells): 9.34%
PGE2 concentration (A549 cells): 299.5683 pg/mL
IC50 (15-PGDH): 128 nM

O=C(CCCC1CCCCC1)Oc1ccc(/C=C2\SC(=O)NC2=O)cc1Br [Compound 24, (Z)-2-bromo-4-((2,4-dioxothiazolidin-5-ylidene)methyl)phenyl 4-cyclohexylbutanoate]
Increment % (A549 cells): 299.32%
PGE2 concentration (A549 cells): 1010.425 pg/mL
IC50 (15-PGDH): 15.4 nM

O=C1NC(=O)/C(=C/c2ccc(OC(=O)C3CCC3)cc2Cl)S1 [Compound 92, (Z)-3-chloro-4-((2,4-dioxothiazolidin-5-ylidene)methyl)phenyl cyclobutanecarboxylate]
Increment % (A549 cells): −57.6754%
PGE2 concentration (A549 cells): 47.26 pg/mL
IC50 (15-PGDH): 206 nM

O=C(Cc1ccccc1)Oc1ccc(/C=C2\SC(=O)NC2=O)cc1Cl [Compound 12, (Z)-2-chloro-4-((2,4-dioxothiazolidin-5-ylidene)methyl)phenyl 2-phenylacetate]
Increment % (A549 cells): −34.89%
PGE2 concentration (A549 cells): 77.92 pg/mL
IC50 (15-PGDH): 63.5 nM

O=C1NC(=O)/C(=C/c2cccc(OC(=O)C3CC3)c2Cl)S1 [Compound 76, (Z)-2-chloro-3-((2,4-dioxothiazolidin-5-ylidene)methyl)phenyl cyclopropanecarboxylate]
Increment % (A549 cells): 3.34%
PGE2 concentration (A549 cells): 123.6726 pg/mL
IC50 (15-PGDH): 542 nM

O=C(CCC1CCCCC1)Oc1ccc(/C=C2\SC(=O)NC2=O)cc1Cl [Compound 8, (Z)-2-chloro-4-((2,4-dioxothiazolidin-5-ylidene)methyl)phenyl 3-cyclohexylpropanoate]
Increment % (A549 cells): 221.32%
PGE2 concentration (A549 cells): 879.6746 pg/mL

O=C(Cc1ccccc1)Oc1ccc(/C=C2\SC(=O)NC2=O)cc1Br [Compound 27, (Z)-2-bromo-4-((2,4-dioxothiazolidin-5-ylidene)methyl)phenyl 2-phenylacetate]
Increment % (A549 cells): 99.65%
PGE2 concentration (A549 cells): 393.7184 pg/mL
IC50 (15-PGDH): 40.6 nM

CCOc1cc(/C=C2\SC(=O)NC2=O)ccc1OC(=O)CCC1CCCCC1 [Compound 53, (Z)-4-((2,4-dioxothiazolidin-5-ylidene)methyl)-2-ethoxyphenyl 3-cyclohexylpropanoate]
Increment % (A549 cells): 189.34%
PGE2 concentration (A549 cells): 792.73 pg/mL

O=C(CCC1CCCCC1)Oc1ccc(/C=C2\SC(=O)NC2=O)c(Cl)c1 [Compound 98, (Z)-3-chloro-4-((2,4-dioxothiazolidin-5-ylidene)methyl)phenyl 3-cyclohexylpropanoate]
Increment % (A549 cells): 138.7487%
PGE2 concentration (A549 cells): 266.5808 pg/mL

O=C(CCC1CCCCC1)Oc1ccc(/C=C2\SC(=O)NC2=O)cc1 [Compound 68, (Z)-4-((2,4-dioxothiazolidin-5-ylidene)methyl)phenyl 3-cyclohexylpropanoate]
Increment % (A549 cells): 97.45%
PGE2 concentration (A549 cells): 255.0535 pg/mL

O=C(CCC1CCCCC1)Oc1ccc(/C=C2\SC(=O)NC2=O)cc1Br [Compound 23, (Z)-2-bromo-4-((2,4-dioxothiazolidin-5-ylidene)methyl)phenyl 3-cyclohexylpropanoate]
Increment % (A549 cells): 311.02%
PGE2 concentration (A549 cells): 1040.03 pg/mL

COc1cc(/C=C2\SC(=O)NC2=O)ccc1OC(=O)CCC1CCCCC1 [Compound 38, (Z)-4-((2,4-dioxothiazolidin-5-ylidene)methyl)-2-methoxyphenyl 3-cyclohexylpropanoate]
Increment % (A549 cells): 323.99%
PGE2 concentration (A549 cells): 859.6813 pg/mL

O=C(CCC1CCCC1)Oc1ccc(/C=C2\SC(=O)NC2=O)c(Cl)c1 [Compound 95, (Z)-3-chloro-4-((2,4-dioxothiazolidin-5-ylidene)methyl)phenyl 3-cyclopentylpropanoate]
Increment % (A549 cells): 113.4574%
PGE2 concentration (A549 cells): 238.3412 pg/mL

O=C1NC(=O)/C(=C/c2cccc(OC(=O)C3CCCCC3)c2Cl)S1 [Compound 81, (Z)-2-chloro-3-((2,4-dioxothiazolidin-5-ylidene)methyl)phenyl cyclohexanecarboxylate]
Increment % (A549 cells): 10.32%
PGE2 concentration (A549 cells): 232.1268 pg/mL

O=C1NC(=O)/C(=C/c2ccc(OC(=O)c3ccccc3)cc2)S1 [Compound 71, (Z)-4-((2,4-dioxothiazolidin-5-ylidene)methyl)phenyl benzoate]
Increment % (A549 cells): −58.38%
PGE2 concentration (A549 cells): 53.76 pg/mL

O=C(CCC1CCCCC1)Oc1cccc(/C=C2\SC(=O)NC2=O)c1Cl [Compound 83, (Z)-2-chloro-3-((2,4-dioxothiazolidin-5-ylidene)methyl)phenyl 3-cyclohexylpropanoate]
Increment % (A549 cells): 201.32%
PGE2 concentration (A549 cells): 634.0143 pg/mL

O=C1NC(=O)/C(=C/c2ccc(OC(=O)C3CCC3)cc2)S1 [Compound 62, (Z)-4-((2,4-dioxothiazolidin-5-ylidene)methyl)phenyl cyclobutanecartboxylate]
Increment % (A549 cells): 12.13%
PGE2 concentration (A549 cells): 178.4361 pg/mL
